Results published in PubChem BioAssay AID248 (DTP/NCI, 2004).
Several values for one entry are separate records, joined by “and”; a condition that tells them apart may be missing. Identical values can stand only once. Inconclusive results and toxic doses are left out. Numbered stars: 1 amine (or outer) side, 2 acyl side, 3 side chain; on linkers, the order of the positions; unused ones are H or OH. Bridge positions count the residues as written; N and C are the ends. Square brackets hold non-standard residues; d marks the D form. Peptide text beside a SMILES is read from it. I, II: the chains in the order shown. Actinocin(9to1) = Cc1c2oc3c(C)ccc(C(=O)[*:1])c3nc-2c(C(=O)[*:2])c(N)c1=O; X4 = O=C(C1CC(Cl)CN1[*:1])[*:2]; NMeV = CN[CH](C(=O)O)C(C)C; Sar = CNCC(=O)O

System: L1210 leukemia ip in BDF1 mice, survival T/C
Assay: NCI In Vivo Anticancer Drug Screen. Data for tumor model L1210 Leukemia (intraperitoneal) in B6D2F1 (BDF1) mice
Conditions: endpoint: mean survival time, higher = longer survival
Procedure, shortened: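 Transplanted-tumor mice were given test agent; controls received vehicle only. Survival readings from the two groups were divided (treated over control).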

[1] = dose: 100.0 mg/kg/injection, schedule: Q01DX001 (ip), vehicle: carboxymethylcellulose (CMC)
[2] = dose: 200.0 mg/kg/injection, schedule: Q01DX001 (ip), vehicle: carboxymethylcellulose (CMC)
[3] = dose: 400.0 mg/kg/injection, schedule: Q01DX001 (ip), vehicle: carboxymethylcellulose (CMC)
[4] = dose: 100.0 mg/kg/injection, schedule: Q01DX009 (ip), vehicle: Klucel (hydroxypropylcellulose) (HPC)
[5] = dose: 200.0 mg/kg/injection, schedule: Q01DX009 (ip), vehicle: Klucel (hydroxypropylcellulose) (HPC)
[6] = dose: 200.0 mg/kg/injection, schedule: Q04DX003 (ip), vehicle: Klucel (hydroxypropylcellulose) (HPC)
[7] = dose: 400.0 mg/kg/injection, schedule: Q01DX009 (ip), vehicle: Klucel (hydroxypropylcellulose) (HPC)
[8] = dose: 400.0 mg/kg/injection, schedule: Q04DX003 (ip), vehicle: Klucel (hydroxypropylcellulose) (HPC)
[9] = dose: 75.0 mg/kg/injection, schedule: Q01DX001 (ip), vehicle: saline
[10] = dose: 150.0 mg/kg/injection, schedule: Q01DX001 (ip), vehicle: saline
[11] = dose: 100.0 mg/kg/injection, schedule: Q04DX002 (ip), vehicle: Klucel (hydroxypropylcellulose) (HPC)
[12] = dose: 200.0 mg/kg/injection, schedule: Q04DX002 (ip), vehicle: Klucel (hydroxypropylcellulose) (HPC)
[13] = dose: 400.0 mg/kg/injection, schedule: Q04DX002 (ip), vehicle: Klucel (hydroxypropylcellulose) (HPC)
[14] = dose: 100.0 mg/kg/injection, schedule: Q01DX001 (ip), vehicle: saline
[15] = dose: 200.0 mg/kg/injection, schedule: Q01DX001 (ip), vehicle: saline
[16] = dose: 400.0 mg/kg/injection, schedule: Q01DX001 (ip), vehicle: saline
[17] = dose: 50.0 mg/kg/injection, schedule: Q01DX001 (ip), vehicle: saline

## Cc1c2oc3c(C)ccc(C(=O)NC4C(=O)NC(C(C)C)C(=O)N5CC(Cl)CC5C(=O)N(C)CC(=O)N(C)C(C(C)C)C(=O)OC4C)c3nc-2c(C(=O)NC2C(=O)NC(C(C)C)C(=O)N3CC(Cl)CC3C(=O)N(C)CC(=O)N(C)C(C(C)C)C(=O)OC2C)c(N)c1=O (stereo not given) (I: TV[X4][Sar][NMeV] / II: TV[X4][Sar][NMeV]; ester I:1-I:C, II:1-II:C; linker I:N-II:N via Actinocin(9to1); configuration not given here)
dose: 200.0 micrograms/kg/injection, schedule: Q01DX009 (ip), vehicle: saline + alcohol
  T/C: 117 % of control
dose: 300.0 micrograms/kg/injection, schedule: Q01DX009 (ip), vehicle: saline + alcohol
  T/C: 123 % of control
dose: 600.0 micrograms/kg/injection, schedule: Q01DX009 (ip), vehicle: saline + alcohol
  T/C: 124 % of control
dose: 800.0 micrograms/kg/injection, schedule: Q01DX009 (ip), vehicle: saline + alcohol
  T/C: 156 % of control
dose: 800.0 micrograms/kg/injection, schedule: Q04DX003 (ip), vehicle: saline + alcohol
  T/C: 122 % of control
dose: 4800.0 micrograms/kg/injection, schedule: Q04DX003 (ip), vehicle: saline + alcohol
  T/C: 121 % of control

## CC(=O)OCC[N+](C)(C)CCCCC[N+](C)(C)CCOC(C)=O
dose: 100.0 mg/kg/injection, schedule: Q01DX009 (ip), vehicle: saline
  T/C: 100 % of control
dose: 100.0 mg/kg/injection, schedule: Q04DX003 (ip), vehicle: saline
  T/C: 95 % of control
dose: 200.0 mg/kg/injection, schedule: Q01DX009 (ip), vehicle: saline
  T/C: 113 % of control
dose: 200.0 mg/kg/injection, schedule: Q04DX003 (ip), vehicle: saline
  T/C: 102 % of control
dose: 400.0 mg/kg/injection, schedule: Q04DX003 (ip), vehicle: saline
  T/C: 88 % of control

## O=c1ccc2cc3ccc(=O)oc3cc2o1
dose: 100.0 mg/kg/injection, schedule: Q01DX001 (ip), vehicle: saline with Tween-80
  T/C: 97 % of control
dose: 200.0 mg/kg/injection, schedule: Q01DX001 (ip), vehicle: saline with Tween-80
  T/C: 97 % of control
dose: 400.0 mg/kg/injection, schedule: Q01DX001 (ip), vehicle: saline with Tween-80
  T/C: 87 % of control

## CC(=O)C(C(C)=O)C(C)=O.CC(=O)C(C(C)=O)C(C)=O.CC(=O)C(C(C)=O)C(C)=O.[Cr]
dose: 50.0 mg/kg/injection, schedule: Q01DX001 (ip), vehicle: carboxymethylcellulose (CMC)
  T/C: 100 % of control
[1]
  T/C: 94 % of control
[2]
  T/C: 105 % of control
[3]
  T/C: 100 % of control

## CC1CC2C(CC1=O)C(C)(C)CCC2(C)C (stereo not given)
[4]
  T/C: 92 % of control
[5]
  T/C: 94 % of control
[6]
  T/C: 107 % of control
[7]
  T/C: 90 % of control
[8]
  T/C: 91 % of control

## O=C(CCl)NCCCC1CCCCC1
dose: 12.5 mg/kg/injection, schedule: Q04DX002 (ip), vehicle: saline
  T/C: 100 % of control
dose: 25.0 mg/kg/injection, schedule: Q04DX002 (ip), vehicle: saline
  T/C: 96 % of control
dose: 50.0 mg/kg/injection, schedule: Q04DX002 (ip), vehicle: saline
  T/C: 104 % of control

## C1#CCCCCCC#CCCCC1
dose: 37.5 mg/kg/injection, schedule: Q01DX009 (ip), vehicle: acetone
  T/C: 89 % of control
dose: 75.0 mg/kg/injection, schedule: Q01DX001 (ip), vehicle: acetone
  T/C: 91 % of control
dose: 75.0 mg/kg/injection, schedule: Q01DX009 (ip), vehicle: acetone
  T/C: 97 % of control
dose: 150.0 mg/kg/injection, schedule: Q01DX001 (ip), vehicle: acetone
  T/C: 94 % of control
dose: 150.0 mg/kg/injection, schedule: Q01DX009 (ip), vehicle: acetone
  T/C: 98 % of control

## N#CN(Cc1ccc(Cl)cc1Cl)C(=O)OCOc1ccc(Cl)cc1
dose: 100.0 mg/kg/injection, schedule: Q01DX009 (ip), vehicle: saline with Tween-80
  T/C: 91 % of control
dose: 200.0 mg/kg/injection, schedule: Q01DX009 (ip), vehicle: saline with Tween-80
  T/C: 96 % of control
dose: 400.0 mg/kg/injection, schedule: Q01DX009 (ip), vehicle: saline with Tween-80
  T/C: 107 % of control

## Nc1cc(S(N)(=O)=O)ccc1N1CCCC1
dose: 100.0 mg/kg/injection, schedule: Q04DX003 (ip), vehicle: saline with Tween-80
  T/C: 96 % of control
dose: 200.0 mg/kg/injection, schedule: Q04DX003 (ip), vehicle: saline with Tween-80
  T/C: 91 % of control
dose: 400.0 mg/kg/injection, schedule: Q04DX003 (ip), vehicle: saline with Tween-80
  T/C: 102 % of control

## CC1CC(=O)C(CN(C)C)C(C)(C)C1 (stereo not given)
[9]
  T/C: 106 % of control
[10]
  T/C: 100 % of control

## CCOC(=O)N1C2CC=CCC1C1(c3ccccc3)OC2(c2ccccc2)c2ccccc21
dose: 100.0 mg/kg/injection, schedule: Q04DX002 (ip), vehicle: DMSO
  T/C: 96 % of control

## Clc1ccc2nc(-c3ccc(Cl)c(Cl)c3)cc(-c3ccccc3)c2c1
[4]
  T/C: 94 % of control
[5]
  T/C: 86 % of control
[7]
  T/C: 97 % of control

## NCCc1cn(C2OC(CO)C(O)C(O)C2O)c2ccccc12 (stereo not given)
dose: 25.0 mg/kg/injection, schedule: Q01DX005 (ip), vehicle: saline
  T/C: 96 % of control and 106 % of control
dose: 50.0 mg/kg/injection, schedule: Q01DX005 (ip), vehicle: saline
  T/C: 96 % of control
dose: 100.0 mg/kg/injection, schedule: Q01DX005 (ip), vehicle: saline
  T/C: 109 % of control and 87 % of control

## O=C(N=Nc1c(O)[nH]c2ccc(Br)cc12)c1ccco1
[11]
  T/C: 111 % of control
[12]
  T/C: 95 % of control
[13]
  T/C: 95 % of control

## O=C1CC(Cc2n[nH]c3c2CCCC3)CC(=O)N1
[1]
  T/C: 100 % of control
[2]
  T/C: 95 % of control
[3]
  T/C: 95 % of control

## CCCCOC(=O)NC/C(Br)=C/Br
[4]
  T/C: 96 % of control
dose: 100.0 mg/kg/injection, schedule: Q04DX003 (ip), vehicle: Klucel (hydroxypropylcellulose) (HPC)
  T/C: 100 % of control
[5]
  T/C: 94 % of control
[6]
  T/C: 96 % of control
[7]
  T/C: 91 % of control
[8]
  T/C: 105 % of control

## CCC(CCl)NC1CCCCC1 (stereo not given)
[9]
  T/C: 106 % of control
[10]
  T/C: 106 % of control

## Cc1ccc(C(C)C)c(OCC2C(=O)C3CCN2CC3)c1 (stereo not given)
dose: 12.5 mg/kg/injection, schedule: Q04DX003 (ip), vehicle: Klucel (hydroxypropylcellulose) (HPC)
  T/C: 101 % of control
dose: 25.0 mg/kg/injection, schedule: Q04DX003 (ip), vehicle: Klucel (hydroxypropylcellulose) (HPC)
  T/C: 101 % of control
dose: 50.0 mg/kg/injection, schedule: Q04DX003 (ip), vehicle: Klucel (hydroxypropylcellulose) (HPC)
  T/C: 95 % of control

## Cc1cccc(Nc2nc(N)nc(N)c2N=O)c1C
dose: 100.0 mg/kg/injection, schedule: Q01DX Z (ip), vehicle: methylcellulose (MC)
  T/C: 96 % of control
dose: 200.0 mg/kg/injection, schedule: Q01DX Z (ip), vehicle: methylcellulose (MC)
  T/C: 102 % of control

## C=CCN(CC=C)C(=S)NC(=O)c1ccccc1
[4]
  T/C: 110 % of control
[5]
  T/C: 104 % of control

## NC(=O)NC1C(c2ccccc2)C1c1ccccc1 (stereo not given)
[14]
  T/C: 121 % of control
[15]
  T/C: 110 % of control
[16]
  T/C: 93 % of control

## CCCCCCCCCCCCCCCCC1Cc2ccccc2C1
[17]
  T/C: 98 % of control
[14]
  T/C: 101 % of control
[15]
  T/C: 107 % of control
[16]
  T/C: 101 % of control

## O=c1ccn(Cc2ccccc2)c(SCc2ccccc2)n1
[17]
  T/C: 105 % of control
dose: 50.0 mg/kg/injection, schedule: Q01DX009 (ip), vehicle: Klucel (hydroxypropylcellulose) (HPC)
  T/C: 102 % of control
[14]
  T/C: 109 % of control
[4]
  T/C: 95 % of control
[15]
  T/C: 91 % of control
[5]
  T/C: 98 % of control
[16]
  T/C: 105 % of control

## NC(=O)c1ccccc1NC(=O)Nc1ccc(Cl)cc1
[4]
  T/C: 98 % of control
[5]
  T/C: 96 % of control
[7]
  T/C: 91 % of control

## O=C1/C(=C\c2ccccc2)C(NC2CCCCC2)c2ccccc21 (stereo not given)
dose: 3.12 mg/kg/injection, schedule: Q01DX009 (ip), vehicle: Klucel (hydroxypropylcellulose) (HPC)
  T/C: 108 % of control
dose: 6.25 mg/kg/injection, schedule: Q01DX009 (ip), vehicle: Klucel (hydroxypropylcellulose) (HPC)
  T/C: 101 % of control
dose: 12.5 mg/kg/injection, schedule: Q01DX009 (ip), vehicle: Klucel (hydroxypropylcellulose) (HPC)
  T/C: 95 % of control

## CCn1[nH]cc2c3nnc(-c4ccccc4)c3cnc21
[11]
  T/C: 98 % of control
[12]
  T/C: 92 % of control
[13]
  T/C: 95 % of control
